Key:
[1] = test system: HeLa cells; assay: Cell-based degradation of FITC-insulin; design: species or system human; details: for increase in magnitude of IDE activity for insulin degradation in HeLa cells: HeLa cells pre-loaded with FITC-insulin, 20 µM; for permeability through cell membrane: inferred from HeLa cell assay
Method: It was shown that HeLa cells express insulin receptor, and thus take FITC-labeled insulin inside and degrade it intracellularly, [21], [22]. First, FITC-insulin was added to the culture that contains HeLa cells and incubated for 2 hours in order to allow for sufficient uptake of FITC-insulin by HeLa cells. In order to ensure that FITC-labeled insulin is translocating into the cells through insulin uptake receptor, and that cytoplasmic IDE can degrade FITC- insulin, we conducted live cell imaging of HeLa cells, and recorded fluorescence. At various time points compounds, D3, D6, and D10, were added; and cells were washed with Hank's balanced salt solution (HBSS), the these cells were collected and lysed with appropriate buffer. After centrifugation, cell free extracts were used to measure the change in fluorescence by luminometer. […] Compound D10 increased in vivo proteolysis of FITC- insulin by about 32 fold with HeLa cells compared to control group (Fig. 3A). […] These findings are consistent with the data obtained by in vitro assay, showing enhanced degradation of insulin by D10 and D3 (Fig. 3A). […] This figure further verifies the significant increase in fluorescence observed in the presence of compound D10, which is consistent with our in vitro assay (Fig. 3B).
Cells were cultured at 37°C under a humidified atmosphere of 5% CO2 in medium supplemented with 10% fetal bovine serum. Then, FITC-insulin was added to cell medium and incubated for 2 h at 37°C. Next, compounds were loaded at different time intervals separately. Cells were washed with Hank's balanced salt solution (HBSS), then disrupted with 1× passive lysis buffer. Fluorescence was measured with a luminescence multi-label plate leader, and changes in fluorescence was imaged by fluorescence microscope at Burc Laboratory (Istanbul, Turkey).

[2] = target: T1, IDE (Homo sapiens, UniProt P14735); assay: Enzymatic competition assay with bradykinin; assay type: biochemical; details: bradykinin 2.1, 4.2 and 8.4 mM; varying D10 (0–50 µM)
T1 construct: made in house; host or cells: E. coli BL21
T1 sequence (P14735 1-1019): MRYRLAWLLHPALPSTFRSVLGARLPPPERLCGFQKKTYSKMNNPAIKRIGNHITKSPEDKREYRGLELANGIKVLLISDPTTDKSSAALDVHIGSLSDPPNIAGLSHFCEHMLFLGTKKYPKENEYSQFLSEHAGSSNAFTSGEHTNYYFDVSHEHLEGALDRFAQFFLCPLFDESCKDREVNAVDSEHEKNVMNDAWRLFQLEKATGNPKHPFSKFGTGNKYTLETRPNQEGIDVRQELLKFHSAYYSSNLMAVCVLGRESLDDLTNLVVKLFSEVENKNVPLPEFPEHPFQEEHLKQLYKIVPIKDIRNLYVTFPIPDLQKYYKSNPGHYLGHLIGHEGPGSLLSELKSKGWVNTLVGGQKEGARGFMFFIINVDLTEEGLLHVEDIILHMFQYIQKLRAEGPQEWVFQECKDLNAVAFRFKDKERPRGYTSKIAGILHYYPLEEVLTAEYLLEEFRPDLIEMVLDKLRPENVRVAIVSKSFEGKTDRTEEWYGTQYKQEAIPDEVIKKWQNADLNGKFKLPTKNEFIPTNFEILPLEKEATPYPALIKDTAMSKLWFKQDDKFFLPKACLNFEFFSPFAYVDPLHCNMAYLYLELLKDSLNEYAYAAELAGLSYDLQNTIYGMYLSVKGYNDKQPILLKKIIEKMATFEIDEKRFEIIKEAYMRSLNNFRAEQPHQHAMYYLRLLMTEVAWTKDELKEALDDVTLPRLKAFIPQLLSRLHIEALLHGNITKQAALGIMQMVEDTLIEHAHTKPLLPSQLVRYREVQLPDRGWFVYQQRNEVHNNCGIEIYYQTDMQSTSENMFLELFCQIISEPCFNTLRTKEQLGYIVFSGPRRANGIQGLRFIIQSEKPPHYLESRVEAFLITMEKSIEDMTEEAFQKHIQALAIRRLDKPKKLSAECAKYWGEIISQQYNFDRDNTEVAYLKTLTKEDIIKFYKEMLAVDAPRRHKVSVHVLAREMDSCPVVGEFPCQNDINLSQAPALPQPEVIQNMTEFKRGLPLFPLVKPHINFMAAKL
Text: Since D10 has been found as the strongest activator of IDE towards the proteolysis of insulin, we analyzed the binding site of the compound D10 for the further analysis. According to the computational results, D10 binds to Gln363 at the IDE exosite and His332 (Fig. 1D). We carried out site-directed mutagenesis by replacing these amino acids into Ala in order to verify that D10 indeed binds to this region via these amino acids. We first mutated Gln363 to Ala and then expressed and purified mutant protein through nickel resin. The effect of D10 on the proteolytic activity of mutant IDE (Gln363Ala) was measured towards FITC-insulin-mAb degradation. […] The activation was about 49-fold in the presence of D10 with wild type IDE (Fig. 2B). Although mutant IDE activity was less responsive to D10 compound compared to wild type IDE, it appeared as if D10 were interacting with IDE through […] and could enhance the activity of mutant IDE. Therefore, we generated a double mutant IDE (Gln363Ala, His332Ala) in order to eliminate the binding of D10 to the exosite region completely. […]
The effect of the bradykinin on the clearance of insulin was measured in the presence of compound D10. […] The fluorescence increase was monitored by using Fluoroskan Ascent FL microplate reader (Thermo).

| Compound | increase in magnitude of IDE activity for insulin degradation in HeLa cells [1] [%] | permeability through cell membrane [1] | decrease of insulin degradation in presence of compound when bradykinin is added [2] |
| --- | --- | --- | --- |
| COc1ccc(C2C(C(=O)Nc3ccccc3)=C(C)N=c3sc(=Cc4cn(C)nc4C)c(=O)n32)cc1 (centres unmarked) [Compound D3] | ~65 | permeable through cell membrane | – |
| Cc1nn(-c2ccccc2)c2nc(-c3cccc([N+](=O)[O-])c3)n3c4ccccc4nc3c2c1=O [Compound D10] | ~240 | permeable through cell membrane | about 50% |
